Results on six molecules are retold here after patent publication US20240310368A1, “DETECTION KIT FOR CATECHOLAMINES AND METABOLITES THEREOF IN PLASMA/URINE AND DETECTION METHOD THEREOF” (Calibra Scientific, Inc., priority 2023, published 2024).

The nature of data set [1]: Stabilizing effect of accelerated stabilizers (37° C., 14 days) on plasma samples then accelerated at 30° C. for 1.5 days. Format: physicochemical, human. To be noted: for Relative deviation %: Accelerate vs Control; for concentration in plasma samples, Control / concentration in plasma samples, Accelerate: single replicates; for concentration in plasma samples, Accelerate: stabilizer accelerated 37° C. 14 days, plasma then accelerated at 30° C. for 1.5 days. On the procedure:
(§1) In the present example, the stabilizing effect of the stabilizers on plasma samples, standard products and quality control products after acceleration was further verified. The stabilizers were accelerated at 37° C. for 14 days (equivalent to 1 year at 2-8° C.), added into the plasma samples in proportions and then accelerated at 30° C. for 1.5 days (equivalent to 12 months at −30° C. to −15° C.). The stabilizers were accelerated at 37° C. for 14 days (equivalent to 1 year at 2-8° C.), added into the standard products and the quality control products in proportions and then accelerated at 30° C. for 2 days (equivalent to 18 months at −30° C. to −15° C.).

The nature of data set [2]: Stabilizing effect of accelerated stabilizers (37° C., 14 days) on standard products and quality control products then accelerated at 30° C. for 2 days. In kind it is physicochemical. Conditions: for Relative deviation %: 2 days at 30° C. vs Control; for concentration in standard products and quality control products, 2 days at 30° C. / concentration in standard products and quality control products, Control: single replicates. On the procedure:
Standard products of epinephrine, norepinephrine, dopamine, metanephrine, normetanephrine and 3-methoxytyramine were prepared into mixed solutions, and blank plasma containing a stabilizer was used as a matrix to prepare standard products and quality control products.
as §1

Data set [3] is described as follows: Acceleration test of plasma samples with stabilizers (30° C. for 1.5 days, against control plasma stored at −95° C. to −65° C.), LC-MS/MS Area/IS Area. On the procedure:
Samples were collected in EDTA-anticoagulant blood collection tubes and then rapidly subjected to […] centrifugation at 2-8° C. to separate plasma. 0.95 mL of the plasma was transferred into centrifuge tubes. After 50 μL of the stabilizer was added for uniform mixing, the plasma samples were stored by refrigeration or freezing.
• (1) 500 μL of plasma/urine samples to be tested were taken, and 50 μL of the internal standard solution and 500 μL of the buffer solution were sequentially added for vertex mixing to obtain diluted samples. • (2) The magnetic medium composite material suspension was subjected to full vortex treatment to reach a suspension state, and then subsequent operation was performed. • (3) Different reagents were added into wells of a preprocessing plate according to the follow operation: adding 200 μL of the magnetic medium composite material suspension in column 1, adding 500 μL of the balance solution in column 2, adding 850 μL of the diluted samples in column 3, adding 500 μL of the balance solution in column 4, adding 200 μL of a rinsing solution in column 5, and adding 100 μL of the elution solution in column 6. • (4) An extraction operation procedure was carried out, as shown in Table 5.
Each group of the plasma samples were stored at 30° C. for 1.5 days, and plasma without addition of any compounds stored at −95° C. to −65° C. was used as a control. […] The stabilizing effect of the single-component stabilizers on the plasma samples was investigated.
The stabilizers were mixed with plasma (the volume ratio of the stabilizers to plasma samples was 1:19), and high concentration plasma samples and low concentration plasma samples were prepared by the method provided in Example 1.
With plasma stored at −95° C. to −65° C. as a control, the above plasma samples were separately stored at 30° C. for 1.5 days to investigate the stability. […]

The mark [4] stands for this setting: samples at a high concentration level.
The mark [5] stands for this setting: samples at a low concentration level.
Where [6] appears, read: plasma at a high concentration level, plasma containing 0.5% of the acid, control plasma 0.624.
Where [7] appears, read: plasma at a high concentration level, plasma containing 0.5% of the acid, control plasma 1.522.
[8] abbreviates: plasma at a high concentration level, plasma containing 0.5% of the acid, control plasma 2.27.
Where [9] appears, read: plasma at a high concentration level, plasma containing 2.0% of the acid, control plasma 0.624.
Where [10] appears, read: plasma at a high concentration level, plasma containing 2.0% of the acid, control plasma 1.522.
The mark [11] stands for this setting: plasma at a high concentration level, plasma containing 2.0% of the acid, control plasma 2.27.
Setting [12] is: plasma at a low concentration level, plasma containing 0.5% of the acid, control plasma 0.079.
The mark [13] stands for this setting: plasma at a low concentration level, plasma containing 0.5% of the acid, control plasma 0.219.
Where [14] appears, read: plasma at a low concentration level, plasma containing 0.5% of the acid, control plasma 0.233.
Where [15] appears, read: plasma at a low concentration level, plasma containing 2.0% of the acid, control plasma 0.079.
Where [16] appears, read: plasma at a low concentration level, plasma containing 2.0% of the acid, control plasma 0.219.
Where [17] appears, read: plasma at a low concentration level, plasma containing 2.0% of the acid, control plasma 0.233.
Setting [18] is: plasma at a high concentration level, plasma containing 50 μg/mL of the component, control plasma 0.624.
[19] abbreviates: plasma at a high concentration level, plasma containing 50 μg/mL of the component, control plasma 1.522.
The mark [20] stands for this setting: plasma at a high concentration level, plasma containing 50 μg/mL of the component, control plasma 2.27.
The mark [21] stands for this setting: plasma at a high concentration level, plasma containing 200 μg/mL of the component, control plasma 0.624.
Setting [22] is: plasma at a high concentration level, plasma containing 200 μg/mL of the component, control plasma 1.522.
The mark [23] stands for this setting: plasma at a high concentration level, plasma containing 200 μg/mL of the component, control plasma 2.27.
Setting [24] is: plasma at a low concentration level, plasma containing 50 μg/mL of the component, control plasma 0.079.
Setting [25] is: plasma at a low concentration level, plasma containing 50 μg/mL of the component, control plasma 0.219.
The mark [26] stands for this setting: plasma at a low concentration level, plasma containing 50 μg/mL of the component, control plasma 0.233.
Where [27] appears, read: plasma at a low concentration level, plasma containing 200 μg/mL of the component, control plasma 0.079.
Where [28] appears, read: plasma at a low concentration level, plasma containing 200 μg/mL of the component, control plasma 0.219.
The mark [29] stands for this setting: plasma at a low concentration level, plasma containing 200 μg/mL of the component, control plasma 0.233.

Values joined by “and” are separate entries in the source; they are usually repeats but may differ in a detail not shown here. Identical values can stand only once.

Turning to `NCCc1ccc(O)c(O)c1` [DA], in data set [1] (setting [4]), the Relative deviation % is −2.0%; the “concentration in plasma samples, Control” value is 0.55903 ng/mL and 0.52998 ng/mL and 0.57132 ng/mL; the “concentration in plasma samples, Accelerate” value was 0.55049 ng/mL and 0.5487 ng/mL and 0.52712 ng/mL. Further, in data set [1] (setting [5]), the Relative deviation % is −0.8%; the “concentration in plasma samples, Control” value was 0.0743 ng/mL and 0.09053 ng/mL and 0.08768 ng/mL; the “concentration in plasma samples, Accelerate” value was 0.08786 ng/mL and 0.07829 ng/mL and 0.08442 ng/mL. In data set [2] (High concentration level), the Relative deviation % came to 0.3%; the “average concentration, 2 days at 30° C.” value was 1485.59 pg/mL; the “concentration in standard products and quality control products, 2 days at 30° C.” value was 1.46403 ng/mL and 1.43079 ng/mL and 1.56195 ng/mL; the “average concentration, Control” value amounted to 1481.12 pg/mL. Further, the “concentration in standard products and quality control products, Control” value in data set [2] (High concentration level) is 1.46201 ng/mL and 1.49448 ng/mL and 1.48688 ng/mL. Further, in data set [2] (Low concentration level), the Relative deviation % is −0.29%; the “average concentration, 2 days at 30° C.” value is reported as 17.86 pg/mL; the “concentration in standard products and quality control products, 2 days at 30° C.” value was 0.01762 ng/mL and 0.01837 ng/mL and 0.01758 ng/mL; the “average concentration, Control” value stood at 17.91 pg/mL. The “concentration in standard products and quality control products, Control” value in data set [2] (Low concentration level) was 0.01722 ng/mL and 0.0181 ng/mL and 0.01841 ng/mL. In data set [2] (Medium concentration level), the Relative deviation % is on record as −2.2%; the “average concentration, 2 days at 30° C.” value worked out at 294.46 pg/mL; the “concentration in standard products and quality control products, 2 days at 30° C.” value was 0.2821 ng/mL and 0.31535 ng/mL and 0.28595 ng/mL; the “average concentration, Control” value is 301.09 pg/mL. In addition, the “concentration in standard products and quality control products, Control” value in data set [2] (Medium concentration level) was 0.30826 ng/mL and 0.30148 ng/mL and 0.29352 ng/mL.
Turning to `CC(=O)O` [acetic acid], the “Ratio (Area/IS Area) E” value in data set [3] (setting [6]), in data set [3] (setting [9]), in data set [3] (setting [12]) and in data set [3] (setting [15]) was 0 in each case. Also, the “Ratio (Area/IS Area) NE” value in data set [3] (setting [7]), in data set [3] (setting [10]), in data set [3] (setting [13]) and in data set [3] (setting [16]) was 0 throughout. Also, the “Ratio (Area/IS Area) DA” value in data set [3] (setting [8]), in data set [3] (setting [11]), in data set [3] (setting [14]) and in data set [3] (setting [17]) was 0 throughout.
With `O=C(O)CC(O)(CC(=O)O)C(=O)O` [citric acid], the “Ratio (Area/IS Area) E” value in data set [3] (plasma at a high concentration level, plasma containing 500 μg/mL of the component, control plasma 0.624) is given as 0; in data set [3] (plasma at a high concentration level, plasma containing 2,000 μg/mL of the component, control plasma 0.624), 0; in data set [3] (plasma at a low concentration level, plasma containing 500 μg/mL of the component, control plasma 0.079), 0; in data set [3] (plasma at a low concentration level, plasma containing 2,000 μg/mL of the component, control plasma 0.079), 0. Also, the “Ratio (Area/IS Area) NE” value in data set [3] (plasma at a high concentration level, plasma containing 500 μg/mL of the component, control plasma 1.522) came out at 0; in data set [3] (plasma at a high concentration level, plasma containing 2,000 μg/mL of the component, control plasma 1.522), 0; in data set [3] (plasma at a low concentration level, plasma containing 500 μg/mL of the component, control plasma 0.219) it was 0; in data set [3] (plasma at a low concentration level, plasma containing 2,000 μg/mL of the component, control plasma 0.219), 0. Further, the “Ratio (Area/IS Area) DA” value in data set [3] (plasma at a high concentration level, plasma containing 500 μg/mL of the component, control plasma 2.27) was found to be 0; in data set [3] (plasma at a high concentration level, plasma containing 2,000 μg/mL of the component, control plasma 2.27), 0; in data set [3] (plasma at a low concentration level, plasma containing 500 μg/mL of the component, control plasma 0.233), 0; in data set [3] (plasma at a low concentration level, plasma containing 2,000 μg/mL of the component, control plasma 0.233), 0.
Consider `O=C(O)CN(CCN(CC(=O)O)CC(=O)O)CC(=O)O.[Na].[Na]` [disodium EDTA, disodium ethylenediaminetetraacetic acid], for which the “Ratio (Area/IS Area) E” value in data set [3] (setting [18]), in data set [3] (setting [21]), in data set [3] (setting [24]) and in data set [3] (setting [27]) was 0 in each case. Also, the “Ratio (Area/IS Area) NE” value in data set [3] (setting [19]), in data set [3] (setting [22]), in data set [3] (setting [25]) and in data set [3] (setting [28]) was 0 each time. The “Ratio (Area/IS Area) DA” value in data set [3] (setting [20]), in data set [3] (setting [23]), in data set [3] (setting [26]) and in data set [3] (setting [29]) was 0 in each case. In addition, the “stabilizing effect on catecholamines in plasma” value in data set [3] (single components as stabilizers) is “no obvious stabilizing effect”.
As to `O=P(O)(O)O` [phosphoric acid], the “Ratio (Area/IS Area) E” value in data set [3] (setting [6]), in data set [3] (setting [9]), in data set [3] (setting [12]) and in data set [3] (setting [15]) was 0 throughout. Further, the “Ratio (Area/IS Area) NE” value in data set [3] (setting [7]), in data set [3] (setting [10]), in data set [3] (setting [13]) and in data set [3] (setting [16]) was 0 in each case. The “Ratio (Area/IS Area) DA” value in data set [3] (setting [8]), in data set [3] (setting [11]), in data set [3] (setting [14]) and in data set [3] (setting [17]) was 0 in each case.
Take `O=S([O-])S(=O)(=O)[O-].[Na+].[Na+]` [sodium pyrosulfite]: the “Ratio (Area/IS Area) E” value in data set [3] (setting [18]), in data set [3] (setting [21]), in data set [3] (setting [24]) and in data set [3] (setting [27]) was 0 in each case. The “Ratio (Area/IS Area) NE” value in data set [3] (setting [19]), in data set [3] (setting [22]), in data set [3] (setting [25]) and in data set [3] (setting [28]) was 0 throughout. The “Ratio (Area/IS Area) DA” value in data set [3] (setting [20]), in data set [3] (setting [23]), in data set [3] (setting [26]) and in data set [3] (setting [29]) was 0 throughout.
